# Experiment: gradient 5% acetonitrile 3 min, to 50% in 2 min, to 85% in 15 min, held 3 min, 100 µL/min
# Conditions: column: Zorbax Extend-C18 2.1 x 50 mm; eluents: water / acetonitrile, 0.1% formic acid
# In short: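 Values are retention times taken from adduct peaks that software picked and an analyst inspected. The pure standards were run as mixtures of ~100 molecules on HPLC linked to a quadrupole time-of-flight mass spectrometer, in positive and negative ionization mode. A Zorbax Extend-C18 column (2.1 × 50 mm, 1.8 μm) was used at 100 μL/min with water and acetonitrile, each including 0.1% formic acid.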
row,SMILES,RP-LC retention time [s]
1,Cc1cc(-c2nnc(-c3ccc(F)cc3)o2)c(C)n1CC(=O)N(C)Cc1ccccc1,1000
2,CCN1CCN(Cc2ccc(C(=O)N3CCN(c4ccc(C)cc4)CC3)cc2)C(=O)C1=O,694
3,CCOC(=O)c1ccc(NC(=O)C2CCCN(c3nnc4c(Cl)cccn34)C2)cc1 (stereo not drawn),802
4,O=C(Cc1csc(-c2ccccc2)n1)Nc1nc(-c2ccccc2Cl)cs1,1210
5,COc1ccccc1N1C(=O)CC(Sc2ccccc2N)C1=O (stereo not drawn),865
6,O=C(Nc1ccc(C(=O)N2CCOCC2)cc1)c1cnn2c(C(F)F)cc(-c3ccccc3)nc12,892
7,c1cc(CN2CCCCC2c2nncn2CC2CC2)co1 (stereo not drawn),561
8,Cc1ccc(NC(=O)c2ccc3c(c2)N(CC(=O)N2CCCC2)C(=O)CO3)nc1,619
9,COC(=O)c1c(NC(=O)N2CCCN(c3nc4cccnc4s3)CC2)sc2c1CCCC2,1100
10,Cc1c(N2CCC(C(=O)NCC3CCCO3)CC2)c(=O)n(C)c(=O)n1-c1ccccc1 (stereo not drawn),691
11,COc1ccccc1CNC(=O)c1ccc2c(c1)NC(=O)C1CCCCN21 (stereo not drawn),809
12,COc1cccc(N2CCN(C(=O)C3CC(=O)N(c4n[nH]c5cccc(F)c45)C3)CC2)c1 (stereo not drawn),742
13,Cc1cc(N2CCCC2)n2nc(CN3CCN(c4ccccn4)CC3)nc2n1,553
14,O=C(Cn1ccn2nc(-c3ccccc3)c(CO)c2c1=O)NC1CCCC1,721
15,CCN1CCN(c2ncc(C(=O)OC)c3ccccc23)CC1,604
16,Cc1ccc(NC(=O)C2CC(=O)N(c3n[nH]c4cccc(F)c34)C2)c(C)c1 (stereo not drawn),770
17,Cc1ccccc1NC(=O)C1(C)Oc2cccnc2N(C)C1=O (stereo not drawn),778
18,Cc1cc(C)c(NC(=O)C2CCCN2S(=O)(=O)c2cc3c(cc2C)NC(=O)CO3)c(C)c1 (stereo not drawn),799
19,O=C(NOC[C@H](O)CO)c1ccc(F)c(F)c1Nc1ccc(I)cc1F,886
20,CCCn1cc(C(=O)Nc2ccc(OC)c(OC)c2)c(=O)c2ccc(C)nc21,1020
21,Cc1ccc(CNC(=O)Cn2ncc3c(c2=O)N(C2CC2)C(=O)CS3)cc1C,757
22,CCOC(=O)Cc1n[nH]c(CSc2nc3ccccc3s2)n1,691

row,SMILES,RP-LC retention time [s]
1,Cc1cccc(CNS(=O)(=O)c2c(C)sc(C)c2-c2n[nH]c(C)c2C)c1,1070
2,O=S(=O)(c1ccc2c(c1)-c1oncc1CO2)N1CCN(c2ccccn2)CC1,647
3,Cc1nnc(-c2cc(NC(=O)c3ccccc3Br)c(C)s2)o1,858
4,Cc1ccc2c(Nc3cc(F)ccc3F)c(C(=O)N3CCCC3)cnc2n1,584
5,Cc1nnc(-c2cn(CC(=O)NCCC3=CCCCC3)c3ccccc23)o1,803
6,O=C(NCc1cccs1)c1nnc(-c2ccc(S(=O)(=O)N3CCOCC3)cc2)o1,804
7,CCNC(=O)c1cnn(-c2cc(-c3nc(C)no3)ccn2)c1C,706
8,Cc1cccc(NC(=O)Cn2cnc3nc(N4CCCC(C(=O)NC5CC5)C4)sc3c2=O)c1C (stereo not drawn),688
9,CCCn1c(=O)c(-c2ccc(C(=O)NCCOC)cc2)nc2cccnc21,796
10,O=C(c1cccc(N2CCNC(c3ccccc3)C2)n1)N1CCSCC1 (stereo not drawn),614
11,CCC(C)NC(=O)CCc1cc2cc(OC)ccc2[nH]c1=O (stereo not drawn),668
12,Cc1nc(C)c(C(=O)NCCn2c(C)cnc2C2CCC2)s1,570
13,COc1ccc(C(=O)Nc2cccn3c(C)nnc23)cc1F,667
14,COc1ccc(N2CCN(C(=O)Cn3ccc4c(SCc5ccc(F)cc5)nccc43)CC2)cc1,759
15,COc1cc(C(=O)N2CCC3(CC2)NC(=O)c2ccc(F)cc2N3C)cc(OC)c1OC,655
16,COc1ccc(CNS(=O)(=O)c2cc(-c3[nH]ncc3C(=O)N3CCCC3)oc2C)cc1,718
17,COc1cccc(Cn2c(C(=O)N3CCC(C(=O)NCc4ccc(C)o4)CC3)cc3ccsc32)c1,970
18,COc1ccc(CCNC(=O)Nc2nnc(-c3ccc(F)cc3F)o2)cc1,788
19,CC(CNC(=O)c1cc2n(n1)CC(C)(C(=O)NC1CCCC1)N(C)C2=O)c1ccccc1 (stereo not drawn),884
20,COc1ccc(OC)c(NC(=O)N2CCc3c(c(-c4nnc(-c5ccc(F)cc5)o4)nn3C)C2)c1,876
21,CC(C)c1ccc(NC(=O)C2CCCN(c3cc(=O)n(C)c(=O)n3C)C2)cc1 (stereo not drawn),829
22,Cc1ccccc1-c1nc(-c2ccc3c(c2)nnn3C)no1,1050

row,SMILES,RP-LC retention time [s]
1,CCc1c(C)nc2ncnn2c1NC(C)C,670
2,COc1cccc(-c2noc(CN3C(=O)COc4ccccc43)n2)c1OC,908
3,COc1cc(Nc2nc3ccccc3nc2NS(=O)(=O)c2ccc(NC(=O)c3ccc(C)c(OC)c3)cc2)cc(OC)c1,1240
4,CNC(=O)Nc1cccnc1N1CCCCC1,544
5,O=C1CCCN1CCCN1C(=O)[C@H]2CN(Cc3ccc(F)cc3Cl)C[C@H]2C1=O,658
6,Cc1ccc(-c2cn3c(CC(=O)Nc4ccc(Cl)cc4F)csc3n2)cc1C,966
7,COC(=O)c1ccc2c(=O)n(-c3ccc(C)c(C)c3)c(N3CCN(c4ccccn4)CC3)nc2c1,756
8,O=C(Nc1cccc(C(F)(F)F)c1)N1CCCC1c1nncn1C1CCCC1 (stereo not drawn),765
9,Cn1nc2n(c1=O)CCC(NS(=O)(=O)c1cccc3cccnc13)CC2 (stereo not drawn),648
10,COc1ccc(-n2ccc(=O)c(-c3nc(-c4ccccc4Cl)no3)n2)cc1,877
11,Cn1nc(C(=O)N2CCCCC2)c2c1CCN(C(=O)CCC(=O)N1CCCC1)C2,622
12,COc1ccc(CCNC(=O)Cn2nc3n(c2=O)CCCCC3)cc1OC,641
13,CC(C)S(=O)(=O)c1ccc(CC(=O)Nc2cc(-c3cccs3)nn2CCO)cc1,701
14,COC(=O)COc1cc(-c2cccc(Cl)c2)nc2ccc(NC(=O)C3CC3)cc12,823
15,O=C(NCc1ccc2c(c1)OCO2)c1nnc(-c2ccc(S(=O)(=O)N3CCOCC3)cc2)o1,804
16,Cc1ccc(-c2nc3nc(C)cc(N(CCO)CCO)n3n2)cc1,614
17,O=C(C1CCCN(c2ccc(-c3ccccc3)nn2)C1)N1CCN(c2ccccc2)CC1 (stereo not drawn),783
18,COc1cccc(-n2ccn3cc(-c4ccc5c(c4)OCO5)nc3c2=O)c1,775
19,O=C(CC(c1ccccc1)c1ccccc1)N(Cc1ccsc1)Cc1ccccn1,857
20,Cc1cc(C)cc(NC(=O)c2cn(-c3cc(N4CCCC4)ncn3)cn2)c1,972
21,COCCN1C(=O)[C@H]2CN(Cc3cc(Br)ccc3OC)C[C@H]2C1=O,633
22,CCc1cc(C2CCCN2C(=O)Nc2ccccc2C)on1 (stereo not drawn),780

row,SMILES,RP-LC retention time [s]
1,Cc1oc(C2CCN(S(=O)(=O)c3cc(F)ccc3F)CC2)nc1C(=O)N(C)C,816
2,Cc1oc(C2CCN(C(=O)Nc3ccc(F)cc3)CC2)nc1C(=O)N(C)C,684
3,CCOC(=O)CCNC(=O)N1CCC(N2C(=O)C3(CCCC3)C2c2scnc2C)CC1 (stereo not drawn),685
4,COc1ccc(C(=O)N2C[C@@H]3C[C@H]2C[C@@H]3NS(=O)(=O)c2ccccc2)cn1,716
5,O=C(NCCc1c[nH]c2ccccc12)C1CCCN1c1nnc(N2CCCC2=O)s1 (stereo not drawn),690
6,Cc1ccc(-c2noc(CCN3CCN(c4ncccn4)CC3)n2)cc1,677
7,Cc1nc2c(c(N(C)CC(=O)N3CCCC3)n1)CCC2,561
8,COc1ccccc1NC(=O)NC1CCCC(OC(=O)Nc2ccc(F)cc2)C1 (stereo not drawn),883
9,CCC(C)(C)NS(=O)(=O)c1cccc(-c2nc(-c3ccc(C)cc3)no2)c1,1290
10,O=C(Cc1ccccc1F)N1CCc2[nH]cnc2C1c1ccccc1 (stereo not drawn),632
11,COC(=O)c1ccc(NC(=O)C2CCCN2S(=O)(=O)c2ccc(F)cc2)cc1 (stereo not drawn),641
12,Cc1ccc(NC(=O)N2CCCC(C)(C(=O)NCc3ccccc3)C2)c(Cl)c1 (stereo not drawn),993
13,COCCN1C(=O)Cc2ccccc2C1C(=O)NC(C)C (stereo not drawn),652
14,O=C(NCCCN1CCCCC1)C1CCN(c2nc3cccnc3s2)CC1,577
15,CC(C)CC(=O)N1CCC(COc2ccc(C(=O)NC(C)C)cc2)CC1,801
16,O=C(c1ccc2c(c1)OCO2)N1CCN(c2cc(-c3ccc(Cl)cc3)[nH]n2)CC1,836
17,COc1ccc(CNC(=O)C2(C)Cc3ccccc3C(=O)N2Cc2ccco2)cc1 (stereo not drawn),860
18,CC(c1ccccc1)n1cnc2c(oc3ccccc32)c1=O (stereo not drawn),859
19,CC(=O)Nc1cc(C(=O)NCC(C)C)c2ccc(C)nc2c1,574
20,COc1ccc2nc([S@](=O)Cc3ncc(C)c(OC)c3C)[nH]c2c1,664
21,O=C(NCc1cc(F)cc(F)c1)C1CCCN(c2nccnc2Sc2ccccc2)C1 (stereo not drawn),1030
22,Cc1ccc(S(=O)(=O)N2CCOCC2)cc1[N+](=O)[O-],751
